Data on three compounds can be found in patent US20170339949A1, “SUGAR SURFACTANTS AND USE THEREOF IN AGROCHEMICAL COMPOSITIONS” (Clariant International Ltd., priority 2014, published 2017).

The structures appear in SMILES notation.

The pKa is the negative logarithm of the acid dissociation constant.

Data set [1] is described as follows: Dynamic surface tension (Krüss PocketDyne BP2100). Format: physicochemical. The conditions noted are these: for Surface tension: 24.6° C. The text has this:
In the case of plants that are difficult to wet, such as the cereal plants wheat, barley, triticale, rye and oats, in the case of further large-scale crops corn, rice, soya and oilseed rape, and also in the case of almost all weed grasses and numerous dicotyledonous weeds that are difficult to control, such as Chenopodium album or Euphorbium heterophyllum, the promotion of the adsorption of the spray liquid on the green parts of the plant is of crucial significance. This wetting agent effect was therefore also determined for the glucamides.
For a given application technique or parameters (nozzle, pressure, water application rate, distance from the plant surface), the value for the dynamic surface tension in [mN/m] correlates well with the adhesion on plants that are difficult to wet such as barley (or cereals in general) and weed grasses. A value of 50 mN/m (at 20-21° C.) with respect to water (72.8 mN/m) results in an improvement in the adhesion from “zero adhesion” to about 50% (Baur P, Pontzen R 2007. Basic features of plant surface wettability and deposit formation and the impact of adjuvants. In: R E Gaskin ed. Proceeding of the 8th International Symposium on Adjuvants for Agrochemicals. Publisher: International Society for Agrochemical Adjuvants (ISAA), Columbus, Ohio, USA). A value below 60 mN/m at 200 ms gives visibly better adsorption of aqueous spray liquids; in the case of standard flat jet nozzles, optimal wetting is achieved.
The values for dynamic surface tension (Krüss PocketDyne BP2100, T 24.6° C.) are shown below at for the linear C810 glucamide and the decene glucamide and a pelargonamide.

The next data set concerns apple leaf cuticles. Description: Membrane penetration test with apple leaf cuticles for mesotrione. Format: in vitro ADME. The conditions noted are these: summary in words of Table 1. The text has this: Increasing the absorption of systemic active ingredients using the example of mesotrione and test system for measurement of the promotion of penetration of active ingredients
Surfactants can promote the absorption of (active) ingredients through membranes such as skin, films or the plant cuticle. As a “finite-dose” application, it is known for the single administration or application of a solution, cream, gel etc. to a membrane that the absorption of active ingredient can be influenced by some additives such as surfactants even after wetting. This effect is independent of the interfacial effect in water, is often highly concentration-dependent and takes place for the most part after evaporation of water and any solvents present rather than as a result of the interaction, for example, with active ingredient, membrane and environmental factors. […]
The potential of the test substances, which is independent of the surfactant action, to promote foliar absorption of active agrochemical ingredients was determined in membrane penetration tests with apple leaf cuticles for mesotrione. […] At regular intervals, aliquot samples were taken and the proportion of active ingredient penetrated was determined by HPLC. During the experiment, the temperature in the system (block, diffusion cells, liquids, etc.) and the air humidity above the spray coating on the cuticle were known exactly and were monitored. […]

The conditions of data set [2]: weak organic acid; cited from earlier work.

For `C=CCCCCCCCC(=O)N(C)C[C@H](O)[C@@H](O)[C@H](O)[C@H](O)CO` [N-Methyl-N-dec-9-enoylglucamine, N-methyl-N-dec-9-enoylglucamine], the Surface tension in data set [1] (conc. 0.6 g/L, 20 ms) turned out to be 70.2 mN/m; in data set [1] (conc. 0.6 g/L, 50 ms), 68.9 mN/m; in data set [1] (conc. 0.6 g/L, 100 ms), 67.6 mN/m; in data set [1] (conc. 0.6 g/L, 200 ms) it was 67.4 mN/m; in data set [1] (conc. 1.25 g/L, 20 ms), 66.4 mN/m; in data set [1] (conc. 1.25 g/L, 50 ms), 63.7 mN/m. The Surface tension is recorded as 61.8 mN/m in data set [1] (conc. 1.25 g/L, 100 ms); 61.0 mN/m in data set [1] (conc. 1.25 g/L, 200 ms); 59.7 mN/m in data set [1] (conc. 2.5 g/L, 20 ms); 56.6 mN/m in data set [1] (conc. 2.5 g/L, 50 ms); 55.5 mN/m in data set [1] (conc. 2.5 g/L, 100 ms); 54.1 mN/m in data set [1] (conc. 2.5 g/L, 200 ms). In addition, the Surface tension is 50.5 mN/m in data set [1] (conc. 5 g/L, 20 ms); 48.3 mN/m in data set [1] (conc. 5 g/L, 50 ms); 47.7 mN/m in data set [1] (conc. 5 g/L, 100 ms); 46.6 mN/m in data set [1] (conc. 5 g/L, 200 ms). The “Suitability as wetting agent compared to Synergen GA (C810)” value in data set [1] (summary in words of dynamic surface tension results) is “wetting agent of comparable suitability”. Further, the “Promotion of penetration of mesotrione compared to the linear mixture of C8 and C10 glucamide” value in the data set on apple leaf cuticles is “higher promotion of penetration of mesotrione”.
Take `CS(=O)(=O)c1ccc(C(=O)C2C(=O)CCCC2=O)c([N+](=O)[O-])c1` [Mesotrione, mesotrione]: the pKa in data set [2] is 3.1.
In the case of `CCCCCCCCC(=O)N(C)C[C@H](O)[C@@H](O)[C@H](O)[C@H](O)CO` [N-Methyl-N-nonanoylglucamine, N-methyl-N-nonanoylglucamine], the Surface tension stood at 70.2 mN/m in data set [1] (conc. 0.6 g/L, 20 ms); 68.8 mN/m in data set [1] (conc. 0.6 g/L, 50 ms); 67.7 mN/m in data set [1] (conc. 0.6 g/L, 100 ms); 67.1 mN/m in data set [1] (conc. 0.6 g/L, 200 ms); 66.0 mN/m in data set [1] (conc. 1.25 g/L, 20 ms); 63.7 mN/m in data set [1] (conc. 1.25 g/L, 50 ms). In addition, the Surface tension in data set [1] (conc. 1.25 g/L, 100 ms) came to 62.6 mN/m; in data set [1] (conc. 1.25 g/L, 200 ms), 61.1 mN/m; in data set [1] (conc. 2.5 g/L, 20 ms) it was 59.1 mN/m; in data set [1] (conc. 2.5 g/L, 50 ms), 56.3 mN/m; in data set [1] (conc. 2.5 g/L, 100 ms), 55.3 mN/m; in data set [1] (conc. 2.5 g/L, 200 ms), 53.8 mN/m. The Surface tension is on record as 47.7 mN/m in data set [1] (conc. 5 g/L, 20 ms); 45.6 mN/m in data set [1] (conc. 5 g/L, 50 ms); 45.2 mN/m in data set [1] (conc. 5 g/L, 100 ms); 44.3 mN/m in data set [1] (conc. 5 g/L, 200 ms). In addition, the “Promotion of penetration of mesotrione compared to the linear mixture of C8 and C10 glucamide” value in the data set on apple leaf cuticles is recorded as “likewise falls short”.
